The nature of data set [1]: Plasma protein binding, equilibrium dialysis (RED), human. It counts as in vitro ADME. Conditions: for recovery at 5 μM / fraction unbound at 5 μM: Human plasma, drug 5 μM; for fraction unbound at 5 μM: read-out: % bound (converted); for Free Fraction in Whole Blood Assay, Human: plasma free fraction. As for the experimental part: (§1) Brain and plasma drug binding were performed by equilibrium dialysis using the Rapid Equilibrium Dialysis (RED) device. Briefly, 300 μL of plasma or brain homogenate (1 brain/3 buffer) containing drug (5 μM) was equilibrated (4-18 h) against 500 μL of buffered saline. After incubation, the concentration of drug in plasma/brain homogenate and buffer was determined by LC-MS/MS.
(§2) Recovery is calculated by determining the total amount of drug in 50 μL of plasma and 50 μL buffer after the incubation and comparing that value to the amount of drug in 50 μL of a plasma sample that was not incubated. For the protein binding assay, drug was added to the plasma and this plasma was added to one side of the dialysis device while buffer was added to the other. After filing the plasma chamber of the equilibrium device, a 50 μL aliquot of plasma was mixed with 50 μL of buffer and then quenched with stop reagent. Drug recovery=(Drug buffer+Drug plasma)/(drug in initial plasma)
In general terms: Equilibrium dialysis compares concentrations on both sides of a semipermeable membrane.

The subject of a further data set is IL23p19 in THP-1 Cells. Nature of the data set: LPS induced IL23p19 in THP-1 cells (IFNγ primed), ELISA. It counts as cell-based. Conditions: Homo sapiens; for IC50: THP-1, LPS, read-out: Cell Assays IC50, IL-23 (LPS, THP-1). As to the method:
On day 1, 50K/well THP-1 cells were seeded and primed with IFNγ (50 ng/mL) in 384-well plates for about 18 hours in RPMI media with 10% FBS. On day 2, the compound was serially diluted in DMSO from 5 mM in 3-fold dilutions, and then diluted 1:125 in RPMI media with 10% FBS. 50 μL/well 2× compound was added to 50 μL/well THP-1 cells (with IFNγ primed) in duplicate in 384 well tissue culture plates. The cells were pre-incubated with compound for 1 hour at 37° C., 5% CO2 before addition of 10 μL/well 11×LPS to give a final concentration of 1 μg/mL LPS. Day 3, after stimulation for 18 hours at 37° C., 5% CO2, the assay plate was centrifuged and 70 μL/well supernatant was harvested. IL-23p19 protein in 70 μL/well of supernatant was measured by sandwich ELISA, and 25 μl/well Cell Titer Glo reagent was added to the remaining cells to measure compound toxicity.
Maxisorp immuno ELISA plates were pre-coated with 25 μL/well of anti-IL-23p19 capture antibody (2.5 ug/mL) in PBS overnight at room temperature. After washing with 1×PBST, the plates were blocked using 100 μL/well of 1% BSA in PBS for 2 hours at room temperature. The plates were washed three times with 1×PBST and 70 μL/well supernatant were added. The plates were incubated at room temperature for 2 hours with shaking and washed three times with 1×PBST. 25 μL/well of biotin labeled anti-IL-12 (p40/p70) detection antibody (100 ng/mL) in PBS with 1% BSA was added and the plates were incubated at room temperature for 2 hours with shaking. After washing three times with 1× PBST, 25 μL/well of streptavidin-HRP (1:200) in PBS with 1% BSA was added and the plates were incubated at room temperature for 20 minutes with shaking. The plates were washed three times with 1× PBST and 25 μL/well of Super Signal ELISA Pico Chemiluminescent Substrate were added. The plates were read with a luminometer, and the chemiluminescence values were entered into Athena (Rigel) for curve fitting, EC50 calculation, and database storage.
THP-1 cells (100K in 100 μL/well) were primed with 25 ng/mL IFN-γ for 18 hours at 37° C., 5% CO2. Compound was serially diluted in DMSO from 2.5 mM in 4-fold dilutions, and then diluted 1:125 in RPMI 1640 complete media with 10% FBS. 100 μL/well 2× compound was mixed with the 100 μL/well IFN-7 primed THP-1 in 96 well flat-bottom white tissue culture plates. The cells were pre-incubated with compound for 1 hour at 37° C., 5% CO2 and before addition of 10 μL/well 21×LPS to give a final concentration of […] for LPS. The cells were stimulated with LPS for 18 hours at 37° C., 5% CO2. After centrifugation, 100 μL/well supernatant was extracted by using a multichannel pipette. IL-23p19 or TNF-α protein in the supernatant were measured by sandwich ELISA. The remaining IFN-7 primed THP-1 cell pellets were used to perform cell viability assays to determine compound cell toxicity. The plates were read with a luminometer, and the chemiluminescence values were entered into Athena (Rigel) for curve fitting, EC50 calculation, and database storage.
Maxisorp immuno ELISA plates were pre-coated with 100 μL/well of anti-IL-23p19 capture antibody (2.4 μg/mL) in PBS overnight at room temperature. After washing with 1×PBST, the plates were blocked using 300 μL/well of 1% BSA in PBS for 2 hours at room temperature. The plates were washed three times with 1×PBST and 100 μL/well supernatant was added. The plates were incubated at room temperature for 2 hours with shaking. The plates were washed three times with 1×PBST and 100 μL/well of biotin anti-human IL-12 (p40/70) detection antibody (10 ng/mL) in PBS with 0.1% BSA were added. The plates were incubated at room temperature for 2 hours with shaking. The plates were washed three times with 1×PBST and 100 μL/well streptavidin-HRP (1:200) in PBS with 0.1% BSA was added. The plates were incubated at room temperature for 20 minutes with shaking. […]
(In general: In an ELISA, binding on a coated surface is turned into a signal by an enzyme label.)

Data set [2] in a line: Plasma protein binding, equilibrium dialysis (RED), monkey. It counts as in vitro ADME. The following applies: drug 5 μM; for fraction unbound at 5 μM: read-out: % bound (converted); for recovery at 5 μM: value above 100% due to experimental error (footnote). As to the method: as §1, §2

The IC50 is the concentration that gives 50% inhibition. Broadly, the EC50 is the concentration at which the effect is half-maximal.

As to `CCO[C@H]1CC[C@H](n2cc(NC(=O)c3csc(-c4cn[nH]c4)n3)c(-c3ncccn3)n2)CC1` [Compound I-1, N-(1-((1r,4r)-4-ethoxycyclohexyl)-3-(pyrimidin-2-yl)-1H-pyrazol-4-yl)-2-(1H-pyrazol-4-yl)thiazole-4-carboxamide], in data set [1], the recovery at 5 μM stood at 77.1%; the fraction unbound at 5 μM is 0.03; the “Free Fraction in Whole Blood Assay, Human” value was 3.0%. In addition, in data set [1] (in rat, dog, monkey and human proteins), the “times more free than Comparison-1 (free drug)” value is on record as “approximately 6 times”. In addition, in the data set on IL23p19 in THP-1 Cells, the IC50 worked out at 8 nM. In addition, in the data set with IL23p19 in THP-1 Cells (THP-1 cells IFNγ primed, LPS 1 μg/mL, 18 h, read-out: IL23-p19 ELISA, THP1-IFNy, LPS, 10 pt EC50), the EC50 was found to be 8 nM. Besides, in data set [2], the fraction unbound at 5 μM is 0.017 and the recovery at 5 μM was found to be 104%.

For `CCO[C@H]1CC[C@H](n2cc(NC(=O)c3csc(-c4cn[nH]c4)n3)c(-c3nc(F)ccc3F)n2)CC1` [Comparison-1, reference compound], in data set [1], the recovery at 5 μM came out at 75.5%; the fraction unbound at 5 μM was 0.004; the “Free Fraction in Whole Blood Assay, Human” value was 0.4%. Further, the IC50 with IL23p19 in THP-1 Cells amounted to 63 nM. Besides, in data set [2], the fraction unbound at 5 μM is 0.003 and the recovery at 5 μM was determined as 71.6%.
